The values below are quoted from earlier work in US20060166941A1, “Treatment and/or prevention of non-viral epithelial damage” (Epistem Limited, priority 2003, published 2006).

The test system of this data set is Na+/Pi cotransport across renal cortical brush border membrane. The conditions noted are these: Hoppe et al. 1988; cited from earlier work.

As to `O=C(O)C(Cl)(Br)P(=O)(O)O` (stereo not drawn) [alpha-Cl-alpha-Br-phosphonoacetate], the “inhibitory activity relative to phosphonoformic acid” value is on record as “threefold greater inhibitory activity than phosphonoformic acid”.
